SMILES strings stand for the structures. The source made the active and inactive calls. No cut-off for these calls is given here. Bounds are passed on as bounds.

The species named for one assay is Homo sapiens. Nature of the assay: (§1) Cytotoxicity against human NSCLC-N6-L16 cells. It counts as functional, cell-based.
Assay [1] can be described thus: as §1. It counts as functional, cell-based.

As for `C[C@H]1CC[C@@H]2OC(C)(C)C(=O)CC[C@@]2(C)[C@]12CC[C@@H]([C@@]1(C)CC[C@@H]3OC(C)(C)C(=O)CC[C@]31C)O2`, in the assay listed under Homo sapiens, the outcome was inactive.

In general, IC50 refers to the midpoint of a concentration-inhibition curve. On to `C[C@H]1CC[C@@H]2OC(C)(C)[C@H](O)CC[C@@]2(C)[C@]12C[C@H](O)[C@@H]([C@@]1(C)CC[C@@H]3OC(C)(C)C(=O)CC[C@]31C)O2` [YARDENONE B], for which the IC50 in assay [1] was greater than 31 µM.

Turning to `CC1=C(CC[C@H]2[C@]3(C)CCC(=O)C(C)(C)O[C@H]3CC[C@]2(C)O)[C@@]2(C)CCC(=O)C(C)(C)C2=C(O)C1=O` [SODWANONE A], 12 µM corresponded to half-maximal inhibition in assay [1] (IC50).

The molecule `C[C@H]1CC[C@@H]2OC(C)(C)C(=O)CC[C@@]2(C)[C@]12C[C@H](O)[C@@H]([C@@]1(C)CC[C@@H]3OC(C)(C)C(=O)CC[C@]31C)O2` [YARDENONE A] had an IC50 in assay [1] greater than 60 µM.

The record behind these values is ChEMBL document CHEMBL1158882, “Yardenone A and B: new cytotoxic triterpenes from the Indian Ocean sponge Axinella cf. bidderi” (J Nat Prod, 2003).
